Source: patent US12679878B2, “CRF2 receptor agonists and their use in therapy” (SANOFI, priority 2020, dated 2026)
Like-named read-outs stand apart in the source and are kept apart here. Starred links: 1 amine or outer side, 2 acyl side, 3 side chain; linkers in the order of their positions; H or OH if unused. Non-standard residues stand in square brackets, D forms with d. Residues, ends and D or L forms follow the SMILES beside them. Groups on a side chain read outwards from the residue. No end group written: not given here. *: point of attachment. C18 diacid = O=C(O)CCCCCCCCCCCCCCCCC(=O)*; γGlu = O=C(O)[C@H](CCC(=O)[*:2])N[*:1]; AEEA = NCCOCCOCC(=O)O; Aib = CC(C)(N)C(=O)O

Columns and labels:
[1] = Chemical stability, purity loss by UPLC-UV after 28 days at 40° C. vs 5° C., pH 4.5 acetate buffer (Example 12); assay type: physicochemical; details: 28 days 40° C. vs 5° C.; pH 4.5, 20 mM acetate buffer; 300 μM
Method in brief: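 300 μM compound (purity-corrected) in 20 mM acetate buffer, pH 4.5, stored 28 days at 5 and 40° C. Purity by UPLC-UV as compound peak area over total peak area. Value is the purity difference between 5° C. and 40° C. samples, relative to the 5° C. purity, in percent.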

[2] = Solubility in buffer systems by UPLC-UV (Example 13); assay type: physicochemical; details: pH 4.5, Solubility in Buffer B [mg/ml]
Method in brief: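 The supernatant was diluted 1:10 and quantified by UPLC-UV peak area against a reference standard curve, correcting for sequence-based extinction coefficients.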

[3] = Physical stability, Thioflavin T fibrillation assay (Example 14); assay type: physicochemical; details: 3 mg/ml, 37° C. shaking
Method in brief: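 Compounds at 3 mg/ml final in buffer were stressed at 37° C by repeated cycles of 10 s shaking at 960 rpm and 50 s rest. ThT fluorescence was read every 20 minutes in eight replicates, with fluorescence increase and lag time indicating fibrillation tendency.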

rat CRF2R α receptor [4] = experiment: cAMP agonism at rat CRF2R α receptor in A7R5 rat aortic smooth muscle cells (Example 8); assay type: cell-based; details: cAMP HTRF, A7R5 rat aortic smooth muscle cell line, 0% HSA
Method in brief: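 Thawed cryopreserved A7R5 cells in HBSS/20 mM HEPES (0 or 0.1% HSA) with 2 mM IBMX, 2000 cells/well, were exposed to compound for 30 min at room temperature. cAMP was read by HTRF (665/620 nm ratio) after 1 h with lysis reagents. Activity was normalised to 1000 nM urocortin 2 as 100%, and EC50 was taken as the concentration giving 50% of maximal activation.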

human CRF2α receptor = molecular target: T1, human CRF2α receptor (Homo sapiens, UniProt Q13324); experiment: cAMP agonism at human CRF2 α receptor in TeloHEAC cells (Example 7); assay type: cell-based; details: cAMP HTRF, TeloHEAC cells stably expressing human CRF2 α
T1 construct: expressed in transfected cells; host or cells: TeloHEAC
T1 sequence (Q13324 1-411): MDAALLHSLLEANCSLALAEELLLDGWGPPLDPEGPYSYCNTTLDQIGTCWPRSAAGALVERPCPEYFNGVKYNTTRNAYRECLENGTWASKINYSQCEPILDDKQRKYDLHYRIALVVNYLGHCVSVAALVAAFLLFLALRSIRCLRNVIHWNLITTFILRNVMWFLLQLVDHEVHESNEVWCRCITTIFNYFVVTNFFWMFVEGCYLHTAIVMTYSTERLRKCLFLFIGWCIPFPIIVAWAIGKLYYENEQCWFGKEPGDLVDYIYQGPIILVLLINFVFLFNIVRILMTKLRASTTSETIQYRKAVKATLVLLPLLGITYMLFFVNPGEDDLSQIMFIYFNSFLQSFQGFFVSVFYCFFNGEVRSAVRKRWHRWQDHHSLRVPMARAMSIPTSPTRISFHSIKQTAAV
Method in brief: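 Percent activation was referenced to 1000 nM UCN2 (100%), and EC50 values taken as concentrations giving half of maximal response. The read-out was a homogeneous time-resolved fluorescence cAMP kit, fluorescence ratio 665/620 nm. Thawed cells (2000/well) saw compound for 30 min at RT in buffer with 2 mM IBMX and 0%/0.1% HSA.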

[5] = Physical stability, dynamic light scattering assay (Example 15); assay type: physicochemical; details: Buffer D (20 mM phosphate, pH 7.4)
Procedure: The physical stability of the compounds was also assessed using a dynamic light scattering assay.
In the present study, the physical stability of test compounds was assessed by determining the apparent hydrodynamic radius (Rh), the scattering intensity (I) and mass contribution (M) after synthesis (0 weeks) and after storage for 4 weeks at 40° C.
For each solution of test compound, the hydrodynamic radius Rh and the diffusion constant D (related via the Stokes-Einstein equation) were determined as an average over triplicates. Both parameters were determined at different compound concentrations (e.g., Rh1 and D1: 1 mg/ml and Rh5 and D5: 5 mg/ml, Rh10 and D10: 10 mg/mL) in the same buffer system. The difference of these parameters between low and high peptide concentration is a surrogate for the DLS interaction parameter kD. […] In addition, the hydrodynamic radius Rh and the corresponding Scattering Intensity (%) were determined as an average over duplicates. The target concentration was 300 μM. Therefore, solutions from solid samples were prepared in a buffer system with a concentration of 300 μM compound based on the previously determined % purity.
DLS measurements were performed on a DynaPro Plate Reader I (Wyatt Technology, Santa Barbara, CA, US) with an 837 nm laser light source at a scattering angle of 150°. The data were collected and processed with Dynamics V 7.8.1.3 or 7.8.2.18 software provided by Wyatt Technology.
Hydrodynamic radii were determined with non-negatively constrained least squares (NNLS) methods using DYNALS algorithms with regularization fit. […] Samples were tempered over 1 hour at +25° C. and visually inspected before analysis.
Samples were mixed with the aid of a pipet tip. Measurements were performed in 5 replicates. […] The plate was centrifuged for 2 minutes at 600 rcf. After removing the sealing, the samples were measured at +25° C.

[6] = molecular target: T2, endogenous human CRF2 (NCI-H82 cells) (human, UniProt Q13324 20-411); experiment: cell-based or functional assay
T2 sequence (looked up): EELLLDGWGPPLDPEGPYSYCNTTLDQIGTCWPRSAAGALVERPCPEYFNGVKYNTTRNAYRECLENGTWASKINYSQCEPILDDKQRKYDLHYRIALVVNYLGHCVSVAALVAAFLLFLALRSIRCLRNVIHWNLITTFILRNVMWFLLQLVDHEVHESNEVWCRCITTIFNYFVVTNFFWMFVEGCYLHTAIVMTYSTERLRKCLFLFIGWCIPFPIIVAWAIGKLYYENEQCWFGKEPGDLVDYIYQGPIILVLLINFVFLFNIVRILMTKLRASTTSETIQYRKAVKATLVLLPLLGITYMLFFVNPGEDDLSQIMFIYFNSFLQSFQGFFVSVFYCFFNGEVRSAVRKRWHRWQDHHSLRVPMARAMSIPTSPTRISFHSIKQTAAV

rat CRF2R α receptor [7] = molecular target: rat CRF2R α receptor (rat, UniProt P47866 20-411); experiment: cell-based or functional assay
[8] = Buffer A: 100 mM acetate buffer, pH 4.5
[9] = Buffer B: 100 mM acetate buffer, pH 4.5, 2.7 mg/ml m-cresol

## CC[C@H](C)[C@H](N)C(=O)N[C@H](C(=O)N[C@@H](CC(C)C)C(=O)N[C@@H](CO)C(=O)N[C@@H](CC(C)C)C(=O)N[C@@H](CC(=O)O)C(=O)N[C@@H](C(=O)N1CCC[C@H]1C(=O)N[C@H](C(=O)N[C@@H](CCCCN)C(=O)N[C@@H](CC(C)C)C(=O)N[C@@H](CCCCNC(=O)COCCOCCNC(=O)COCCOCCNC(=O)CC[C@H](NC(=O)CCCCCCCCCCCCCCCCC(=O)O)C(=O)O)C(=O)N[C@@H](CCC(N)=O)C(=O)N[C@H](C(=O)N[C@@H](CC(C)C)C(=O)N[C@@H](CC(C)C)C(=O)N[C@@H](CCCCN)C(=O)N[C@@H](CCC(N)=O)C(=O)N[C@@H](C)C(=O)N[C@@H](CCCNC(=N)N)C(=O)N[C@@H](CCC(N)=O)C(=O)N[C@@H](CCCCN)C(=O)NC(C)(C)C(=O)N[C@@H](CCC(N)=O)C(=O)N[C@@H](CCCNC(=N)N)C(=O)N[C@@H](C)C(=O)N[C@@H](CCC(N)=O)C(=O)N[C@@H](C)C(=O)N[C@@H](CCC(=O)O)C(=O)N[C@@H](CCCCN)C(=O)N[C@@H](CC(N)=O)C(=O)N[C@@H](CCCCN)C(=O)N[C@@H](CCCNC(=N)N)C(=O)N[C@H](C(=O)N[C@@H](CC(C)C)C(=O)N[C@@H](CCC(=O)O)C(=O)N[C@@H](CCCNC(=N)N)C(=O)N[C@H](C(N)=O)C(C)C)[C@@H](C)CC)[C@@H](C)CC)[C@@H](C)CC)C(C)C)C(C)C [compound 141] (H-IVLSLD[dV]PIKLK([AEEA-AEEA-γGlu-C18 diacid])QILLKQARQK[Aib]QRAQAEKNKRILERV-NH2)
[1]
  Relative purity loss [%]: 2.90%
[2]
  solubility at 1 h: > 8300 µg/mL
[3]; [8]
  Increase in FI (fluorescence intensity): No
  Lag time: >45 h
[3]; [9]
  Increase in FI (fluorescence intensity): No
  Lag time: >45 h
Rat CRF2R α receptor [4]
  EC50: 0.05 nM
Human CRF2α receptor; 0% HSA, read-out: EC50 [nM], 0% HSA
  EC50: 0.03 nM
Human CRF2α receptor; 0.1% HSA, read-out: EC50 [nM], 0.1% HSA
  EC50: 0.97 nM
[5]; 0 weeks
  Apparent Rh [nm] 0 weeks: 2.19 ± 0.18 nm
  Scattering Intensity (I) [%] 0 weeks: 100 ± 1%
[5]; 4 weeks at 40° C.
  Apparent Rh [nm] 4 weeks: 2.34 ± 0.22 nm
  Scattering Intensity (I) [%] 4 weeks: 98 ± 2%

B1: peptide of SEQ ID NO: 143 (peptide)
peptide: FTLSLDVPTKIK([AEEA-AEEA-γGlu-C18 diacid])QILLKQEKQKKQRQKAKTNKQILERV-NH2
modifications: N-terminus assumed
SMILES: CC[C@H](C)[C@H](NC(=O)[C@H](CCC(N)=O)NC(=O)[C@H](CCCCN)NC(=O)[C@H](CC(N)=O)NC(=O)[C@@H](NC(=O)[C@H](CCCCN)NC(=O)[C@H](C)NC(=O)[C@H](CCCCN)NC(=O)[C@H](CCC(N)=O)NC(=O)[C@H](CCCNC(=N)N)NC(=O)[C@H](CCC(N)=O)NC(=O)[C@H](CCCCN)NC(=O)[C@H](CCCCN)NC(=O)[C@H](CCC(N)=O)NC(=O)[C@H](CCCCN)NC(=O)[C@H](CCC(=O)O)NC(=O)[C@H](CCC(N)=O)NC(=O)[C@H](CCCCN)NC(=O)[C@H](CC(C)C)NC(=O)[C@H](CC(C)C)NC(=O)[C@@H](NC(=O)[C@H](CCC(N)=O)NC(=O)[C@H](CCCCNC(=O)COCCOCCNC(=O)COCCOCCNC(=O)CC[C@H](NC(=O)CCCCCCCCCCCCCCCCC(=O)O)C(=O)O)NC(=O)[C@@H](NC(=O)[C@H](CCCCN)NC(=O)[C@@H](NC(=O)[C@@H]1CCCN1C(=O)[C@@H](NC(=O)[C@H](CC(=O)O)NC(=O)[C@H](CC(C)C)NC(=O)[C@H](CO)NC(=O)[C@H](CC(C)C)NC(=O)[C@@H](NC(=O)[C@@H](N)Cc1ccccc1)[C@@H](C)O)C(C)C)[C@@H](C)O)[C@@H](C)CC)[C@@H](C)CC)[C@@H](C)O)C(=O)N[C@@H](CC(C)C)C(=O)N[C@@H](CCC(=O)O)C(=O)N[C@@H](CCCNC(=N)N)C(=O)N[C@H](C(N)=O)C(C)C
[6]
  EC50 [nM] (cAMP, NCI-H82 cells): 93 nM

B2: peptide of SEQ ID NO: 141 (peptide)
peptide: IVLSLD[dV]PIKLK([AEEA-AEEA-γGlu-C18 diacid])QILLKQARQK[Aib]QRAQAEKNKRILERV-NH2
modifications: N-terminus assumed
SMILES: CC[C@H](C)[C@H](N)C(=O)N[C@H](C(=O)N[C@@H](CC(C)C)C(=O)N[C@@H](CO)C(=O)N[C@@H](CC(C)C)C(=O)N[C@@H](CC(=O)O)C(=O)N[C@@H](C(=O)N1CCC[C@H]1C(=O)N[C@H](C(=O)N[C@@H](CCCCN)C(=O)N[C@@H](CC(C)C)C(=O)N[C@@H](CCCCNC(=O)COCCOCCNC(=O)COCCOCCNC(=O)CC[C@H](NC(=O)CCCCCCCCCCCCCCCCC(=O)O)C(=O)O)C(=O)N[C@@H](CCC(N)=O)C(=O)N[C@H](C(=O)N[C@@H](CC(C)C)C(=O)N[C@@H](CC(C)C)C(=O)N[C@@H](CCCCN)C(=O)N[C@@H](CCC(N)=O)C(=O)N[C@@H](C)C(=O)N[C@@H](CCCNC(=N)N)C(=O)N[C@@H](CCC(N)=O)C(=O)N[C@@H](CCCCN)C(=O)NC(C)(C)C(=O)N[C@@H](CCC(N)=O)C(=O)N[C@@H](CCCNC(=N)N)C(=O)N[C@@H](C)C(=O)N[C@@H](CCC(N)=O)C(=O)N[C@@H](C)C(=O)N[C@@H](CCC(=O)O)C(=O)N[C@@H](CCCCN)C(=O)N[C@@H](CC(N)=O)C(=O)N[C@@H](CCCCN)C(=O)N[C@@H](CCCNC(=N)N)C(=O)N[C@H](C(=O)N[C@@H](CC(C)C)C(=O)N[C@@H](CCC(=O)O)C(=O)N[C@@H](CCCNC(=N)N)C(=O)N[C@H](C(N)=O)C(C)C)[C@@H](C)CC)[C@@H](C)CC)[C@@H](C)CC)C(C)C)C(C)C
Rat CRF2R α receptor [7]
  EC50 [nM], 0% HSA (cAMP, A7R5 cells): 0.05 nM
[6]
  EC50 [nM] (cAMP, NCI-H82 cells): 12 nM
